From paper PMC7740640 (Xenobiotica; the fate of foreign compounds in biological …, 2020) come the findings set out here.

Like-named read-outs stand apart in the source and are kept apart here.

One may read the IC50 as the point on the concentration scale where inhibition reaches its midpoint. Low readings indicate inhibition by little substance, high ones a need for much substance.

The subject of series [1] is human liver microsomes (HLM). The series is described as follows: Inhibition of C152 metabolism, HLM. In kind it is biochemical. The settings on record: 30 μM C152 as substrate.
Another series deals with CYP3A4 (Homo sapiens, UniProt P08684). Kind of series: Inhibition of C152 metabolism, SS.
Another series deals with T1, CYP2B6 (Homo sapiens, UniProt P20813).
T1 sequence (P20813 1-491): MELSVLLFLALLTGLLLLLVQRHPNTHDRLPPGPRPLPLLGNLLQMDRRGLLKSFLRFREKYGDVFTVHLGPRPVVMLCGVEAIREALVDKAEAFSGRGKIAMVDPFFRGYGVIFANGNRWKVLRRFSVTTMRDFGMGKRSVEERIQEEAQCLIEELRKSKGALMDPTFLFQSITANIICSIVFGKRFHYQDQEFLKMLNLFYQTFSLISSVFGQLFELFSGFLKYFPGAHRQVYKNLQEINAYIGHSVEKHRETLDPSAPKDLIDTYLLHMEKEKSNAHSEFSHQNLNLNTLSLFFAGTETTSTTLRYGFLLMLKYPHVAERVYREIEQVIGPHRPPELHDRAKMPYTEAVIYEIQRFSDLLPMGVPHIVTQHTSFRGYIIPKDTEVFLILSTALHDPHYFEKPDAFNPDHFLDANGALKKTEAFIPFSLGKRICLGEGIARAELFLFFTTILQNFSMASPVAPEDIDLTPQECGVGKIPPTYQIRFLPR
The series is described as follows: Inhibition of C152 metabolism, SS.

Another series concerns the target CYP2C19 (Homo sapiens, UniProt P33261). The series is described as follows: Inhibition of C152 metabolism, SS.
The target in a further series is T2, CYP1A2 (Homo sapiens, UniProt P05177).
T2 sequence (P05177 2-516 limits assumed): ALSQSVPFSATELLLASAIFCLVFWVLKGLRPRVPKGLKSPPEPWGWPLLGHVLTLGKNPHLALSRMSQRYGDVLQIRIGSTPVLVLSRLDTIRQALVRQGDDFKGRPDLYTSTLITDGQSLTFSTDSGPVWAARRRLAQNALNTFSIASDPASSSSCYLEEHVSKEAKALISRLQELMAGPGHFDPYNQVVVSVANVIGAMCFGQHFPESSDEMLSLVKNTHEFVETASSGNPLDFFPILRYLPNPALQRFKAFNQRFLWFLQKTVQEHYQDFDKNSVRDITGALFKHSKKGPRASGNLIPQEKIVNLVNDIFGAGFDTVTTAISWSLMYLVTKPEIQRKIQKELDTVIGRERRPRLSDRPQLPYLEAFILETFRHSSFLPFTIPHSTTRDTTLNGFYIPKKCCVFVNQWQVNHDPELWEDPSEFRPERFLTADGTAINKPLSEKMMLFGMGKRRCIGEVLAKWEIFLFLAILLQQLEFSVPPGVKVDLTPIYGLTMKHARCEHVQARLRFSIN
The series is described as follows: C152 metabolism. In kind it is in vitro ADME. Conditions: SS(1A2); initial substrate C152 28 μM; scanning fluorimetry.

Setting [2] is: SS(3A4), 30 μM C152 as substrate.
Setting [3] is: SS(2B6), 30 μM C152 as substrate.

Chain of CYP3A4 (P08684 2-503 limits assumed): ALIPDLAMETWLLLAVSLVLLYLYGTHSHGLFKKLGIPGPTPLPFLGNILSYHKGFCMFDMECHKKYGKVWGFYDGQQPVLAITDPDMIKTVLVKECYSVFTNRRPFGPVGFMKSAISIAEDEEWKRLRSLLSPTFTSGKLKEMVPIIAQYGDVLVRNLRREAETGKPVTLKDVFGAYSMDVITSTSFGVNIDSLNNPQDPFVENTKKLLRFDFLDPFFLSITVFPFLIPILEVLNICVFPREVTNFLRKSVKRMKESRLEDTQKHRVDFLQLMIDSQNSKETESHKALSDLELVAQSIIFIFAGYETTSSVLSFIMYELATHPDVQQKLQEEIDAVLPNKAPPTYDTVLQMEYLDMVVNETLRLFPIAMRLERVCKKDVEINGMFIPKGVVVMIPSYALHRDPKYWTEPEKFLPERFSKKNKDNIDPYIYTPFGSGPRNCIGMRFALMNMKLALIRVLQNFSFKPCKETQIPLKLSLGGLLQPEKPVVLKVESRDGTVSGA
Chain of CYP2C19 (P33261 whole entry): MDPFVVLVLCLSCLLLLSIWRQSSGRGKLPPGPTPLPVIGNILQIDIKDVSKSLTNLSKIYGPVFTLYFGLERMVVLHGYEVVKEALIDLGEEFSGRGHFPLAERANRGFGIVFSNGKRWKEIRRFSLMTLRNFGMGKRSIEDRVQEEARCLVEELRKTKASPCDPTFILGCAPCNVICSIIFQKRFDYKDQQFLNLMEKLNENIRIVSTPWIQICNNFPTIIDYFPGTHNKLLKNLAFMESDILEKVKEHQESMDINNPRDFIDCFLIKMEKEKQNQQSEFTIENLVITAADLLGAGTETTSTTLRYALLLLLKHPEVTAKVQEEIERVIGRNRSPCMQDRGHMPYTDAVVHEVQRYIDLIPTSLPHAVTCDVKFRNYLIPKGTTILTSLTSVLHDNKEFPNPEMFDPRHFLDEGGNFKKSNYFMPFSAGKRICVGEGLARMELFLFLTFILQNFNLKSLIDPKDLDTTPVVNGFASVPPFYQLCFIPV

On to `CC[C@@]1(c2ccccc2)NC(=O)N(Cc2ccccc2)C1=O` [BNVL, (S)-(+)-N-3-benzylnirvanol], for which the IC50 turned out to be 0.51 ± 0.03 µM in series [1], 27 ± 3 µM on CYP3A4 (setting [2]) and 8.5 ± 2.3 µM against CYP2B6 (setting [3]). In addition, the “Inhibition (maximal amplitude)” value at CYP3A4 (setting [2]) was found to be 59±10%; at CYP2B6 (setting [3]), 81±7%.
In the case of `Clc1ccc(Cc2ccncc2)cc1` [CBP, 4-(4-Chlorobenzyl)pyridine], the IC50 in series [1] was determined as 225 ± 30 µM; against CYP2C19 it was 215 ± 118 µM; against CYP3A4, 225 ± 73 µM; on CYP2B6, 0.038 ± 0.016 µM. Further, in series [1], the “Inhibition (maximal amplitude)” value is 88±12%.
Take `Clc1ccccc1C(c1ccccc1)(c1ccccc1)n1ccnc1` [CTZ, clotrimazole]: the IC50 against CYP2C19 was 0.2 ± 0.11 µM.
For `CNc1ccc2c(C(F)(F)F)cc(=O)oc2c1` [DC152, 7-methylamino-4-trifluoromethyl coumarin], on CYP1A2, the “maximal level of formation of DC152” value was ~ 4 μM.
With `CC(=O)N1CCN(c2ccc(OCC3COC(Cn4ccnc4)(c4ccc(Cl)cc4Cl)O3)cc2)CC1` (stereo not drawn) [KCZ, ketoconazole], the IC50 in series [1] came to 1.9 ± 0.2 µM; on CYP2B6 it was 9.5 ± 2.8 µM. In addition, in series [1], the “Inhibition (maximal amplitude)” value is 89±7%.
